# Experimental data taken from paper PMC12122562, “Phase 1 studies of the indenoisoquinolines LMP776 and LMP744 in patients with solid tumors and lymphomas” (Cancer Chemotherapy and Pharmacology, 2025).
# Entries after “also recorded” stand apart in the source; their conditions may differ.
# Tested on: patients with advanced, refractory solid tumors or lymphomas
# Test: Phase 1 trial of LMP776 (NCT01051635): safety, MTD, adverse events (CTCAE v4.0)
# Assay type: in vivo
# From the text: The primary objectives of each study included establishing safety, tolerability, MTD, and recommended phase 2 dose (RP2D) of LMP776 and LMP744 as single agents. The LMP744 study included evaluation of tumor pharmacodynamics as an exploratory objective. Both trials were opened at the National Cancer Institute’s (NCI) Developmental Therapeutics Clinic, and the LMP744 trial was also opened at the University of Pittsburgh Hillman Cancer Center. Both trials used an accelerated dose escalation designs (Simon design 4 for LMP776, Simon design 3 for LMP744) to determine the MTD [30]. Dose levels are listed in Supplementary Table 1. Once the MTD was determined, additional patients were enrolled at that DL in an expansion cohort to evaluate pharmacodynamic changes as described below. LMP776 and LMP744 were administered intravenously through a central line via a 1-h infusion on days 1–5 (QDx5) in 28-day cycles. Both agents were supplied by the NCI Division of Cancer Treatment and Diagnosis (DCTD). The studies were approved by the NIH Institutional Review Board and conducted in accordance with the Declaration of Helsinki.
# Patients were enrolled in either NCT01051635 evaluating LMP776 or NCT03030417 evaluating LMP744; these trials were conducted sequentially. Both trials required that patients be ≥ 18 years of age with solid tumors or lymphomas refractory to other treatments. Patients were required to have adequate performance status (Eastern Cooperative Oncology Group [ECOG] performance status ≤ 2), bone marrow function, and organ function as described in the Supplementary Methods. Patients in expansion phases at the MTD were required to have disease amenable to biopsy collection and be willing to undergo research biopsies. All patients provided written informed consent.
# Tumor responses were evaluated by serial CT scans according to RECIST v1.1 criteria. CT scans were performed every other cycle during the first year, then every 3 cycles after the first year. […] Criteria for all versions can be found at https://ctep.cancer.gov/protocolDevelopment/electronic_applications/ctc.htm. Any patient who received a dose of either agent was considered eligible for toxicity evaluation.
# [1] = all DLs, highest grade per patient
# [2] = grade 2, DL1-DL2 (n = 8; suppl. DL2, n=7)
structure (smiles),measurement,setting,value
COc1cc2c3c(n(CCCn4ccnc4)c(=O)c2cc1OC)-c1cc2c(cc1C3=O)OCO2 [LMP776],Grade 3 non-hematologic toxicities,"DL8 (16 mg/m^2/day), one patient each","hypokalemia, hyponatremia, and hypophosphatemia"
same,Maximum tolerated dose (MTD),"IV QDx5, 28-day cycles (DL7)",12 mg/m^2/day
same,"Anemia, grade ≥ 2, prevalence",across all DLs,50%
same,"Lymphopenia, grade ≥ 2, prevalence",across all DLs,38%
same,"Thrombocytopenia, grade ≥ 2, prevalence",across all DLs,18%
same,"Alkaline phosphatase increased, grade ≥ 2, Total (%)",all DLs,1 (3)
same,"Aspartate aminotransferase increased, grade ≥ 2, Total (%)",all DLs,2 (6)
same,"Dehydration, grade ≥ 2, Total (%)",all DLs,2 (6)
same,"Diarrhea, grade ≥ 2, Total (%)",all DLs,1 (3)
same,"Dysgeusia, grade ≥ 2, Total (%)",all DLs,2 (6)
same,"Fatigue, grade ≥ 2, Total (%)",all DLs,3 (9)
same,"Hypercalcemia, grade ≥ 2, Total (%)",all DLs,1 (3)
same,"Hypoalbuminemia, grade ≥ 2, Total (%)",all DLs,3 (9)
same,"Hypoglycemia, grade ≥ 2, Total (%)",all DLs,1 (3)
same,"Hypokalemia, grade ≥ 2, Total (%)",all DLs,1 (3)
same,"Hypomagnesemia, grade ≥ 2, Total (%)",all DLs,1 (3)
same,"Hyponatremia, grade ≥ 2, Total (%)",all DLs,2 (6)
same,"Hypothyroidism, grade ≥ 2, Total (%)",all DLs,1 (3)
same,"Mucositis - oral, grade ≥ 2, Total (%)",all DLs,1 (3)
same,"Nausea, grade ≥ 2, Total (%)",all DLs,2 (6)
same,"Vomiting, grade ≥ 2, Total (%)",all DLs,1 (3)
same,"White blood cell decreased, grade ≥ 2, Total (%)",all DLs,3 (9)
same,"Anemia, grade ≥ 2, Total (%)",[1],17 (50)
same,"Hypophosphatemia, grade ≥ 2, Total (%)",[1],4 (12)
same,"Lymphopenia (Lymphocyte count decreased), grade ≥ 2, Total (%)",[1],13 (38)
same,"Neutropenia, grade ≥ 2, Total (%)",[1],5 (15)
same,"Thrombocytopenia (Platelet count decreased), grade ≥ 2, Total (%)",[1],6 (18)
same,Patients requiring a dose reduction,enrolled at DL8,One
same,"Anemia, patients",[2],5
same,"Hypophosphatemia, patients",[2],1
same,"Lymphopenia (Lymphocyte count decreased), patients",[2],2
same,"Hypoalbuminemia, patients","grade 2, DL2",1
same,"Lymphopenia (Lymphocyte count decreased), patients","grade 2, DL3-DL4",1
same,"Anemia, patients","grade 2, DL3-DL4 (n = 6)",2
same,"Dehydration, patients","grade 2, DL5-DL6",1
same,"Diarrhea, patients","grade 2, DL5-DL6",1
same,"Fatigue, patients","grade 2, DL5-DL6",1
same,"Neutropenia, patients","grade 2, DL5-DL6",1
same,"Anemia, patients","grade 2, DL5-DL6 (n = 6)",3
same,"Aspartate aminotransferase increased, patients","grade 2, DL7",1
same,"Hypophosphatemia, patients","grade 2, DL7",1
same,"Anemia, patients","grade 2, DL7 (n = 7)",1
same,"Aspartate aminotransferase increased, patients","grade 2, DL8",1
same,"Dehydration, patients","grade 2, DL8",1
same,"Dysgeusia, patients","grade 2, DL8",2
same,"Fatigue, patients","grade 2, DL8",2
same,"Hypoalbuminemia, patients","grade 2, DL8",2
same,"Hypomagnesemia, patients","grade 2, DL8",1
same,"Hypophosphatemia, patients","grade 2, DL8",1
same,"Hypothyroidism, patients","grade 2, DL8",1
same,"Nausea, patients","grade 2, DL8",2
same,"Neutropenia, patients","grade 2, DL8",1
same,"Thrombocytopenia (Platelet count decreased), patients","grade 2, DL8",1
same,"Vomiting, patients","grade 2, DL8",1
same,"White blood cell decreased, patients","grade 2, DL8",1
same,"Anemia, patients","grade 2, all DLs (n=34)",11
same,"Aspartate aminotransferase increased, patients","grade 2, all DLs (n=34)",2
same,"Dehydration, patients","grade 2, all DLs (n=34)",2
same,"Diarrhea, patients","grade 2, all DLs (n=34)",1
same,"Dysgeusia, patients","grade 2, all DLs (n=34)",2
same,"Fatigue, patients","grade 2, all DLs (n=34)",3
same,"Hypercalcemia, patients","grade 2, all DLs (n=34)",1
same,"Hypoalbuminemia, patients","grade 2, all DLs (n=34)",3
same,"Hypomagnesemia, patients","grade 2, all DLs (n=34)",1
same,"Hyponatremia, patients","grade 2, all DLs (n=34)",2
same,"Hypophosphatemia, patients","grade 2, all DLs (n=34)",3
same,"Hypothyroidism, patients","grade 2, all DLs (n=34)",1
same,"Lymphocyte count decreased, patients","grade 2, all DLs (n=34)",3
same,"Nausea, patients","grade 2, all DLs (n=34)",2
same,"Neutropenia, patients","grade 2, all DLs (n=34)",2
same,"Platelet count decreased, patients","grade 2, all DLs (n=34)",1
same,"Vomiting, patients","grade 2, all DLs (n=34)",1
same,"White blood cell count decreased, patients","grade 2, all DLs (n=34)",1
same,"Hypoglycemia, patients","grade 3, DL2",1
same,"Lymphopenia (Lymphocyte count decreased), patients","grade 3, DL3-DL4",2
same,"Anemia, patients","grade 3, DL3-DL4 (n = 6)",1
same,"Lymphopenia (Lymphocyte count decreased), patients","grade 3, DL5-DL6",1
same,"Alkaline phosphatase increased, patients","grade 3, DL7",1
same,"Hyponatremia, patients","grade 3, DL7",1
same,"Lymphopenia (Lymphocyte count decreased), patients","grade 3, DL7",2
same,"Mucositis - oral, patients","grade 3, DL7",1
same,"Thrombocytopenia (Platelet count decreased), patients","grade 3, DL7",1
same,"Anemia, patients","grade 3, DL7 (n = 7)",1
same,"Hypokalemia, patients","grade 3, DL8",1
same,"Hyponatremia, patients","grade 3, DL8",1
same,"Hypophosphatemia, patients","grade 3, DL8",1
same,"Lymphopenia (Lymphocyte count decreased), patients","grade 3, DL8",3
same,"Neutropenia, patients","grade 3, DL8",2
same,"Thrombocytopenia (Platelet count decreased), patients","grade 3, DL8",3
same,"White blood cell decreased, patients","grade 3, DL8",1
same,"Anemia, patients","grade 3, DL8 (n = 7)",4
same,"Alkaline phosphatase increased, patients","grade 3, all DLs (n=34)",1
same,"Anemia, patients","grade 3, all DLs (n=34)",6
same,"Hypoglycemia, patients","grade 3, all DLs (n=34)",1
same,"Hypokalemia, patients","grade 3, all DLs (n=34)",1
same,"Lymphocyte count decreased, patients","grade 3, all DLs (n=34)",8
same,"Mucositis - oral, patients","grade 3, all DLs (n=34)",1
same,"Neutropenia, patients","grade 3, all DLs (n=34)",2
same,"Platelet count decreased, patients","grade 3, all DLs (n=34)",3
same,"White blood cell count decreased, patients","grade 3, all DLs (n=34)",1
same,"Hypercalcemia, patients","grade 4, DL2",1
same,"Lymphopenia (Lymphocyte count decreased), patients","grade 4, DL8",2
same,"Neutropenia, patients","grade 4, DL8",1
same,"Thrombocytopenia (Platelet count decreased), patients","grade 4, DL8",1
same,"White blood cell decreased, patients","grade 4, DL8",1
same,"Lymphocyte count decreased, patients","grade 4, all DLs (n=34)",2
same,"Neutropenia, patients","grade 4, all DLs (n=34)",1
same,"Platelet count decreased, patients","grade 4, all DLs (n=34)",1
same,"White blood cell count decreased, patients","grade 4, all DLs (n=34)",1
same,Dose-limiting toxicities (DLTs),in vivo,"hypercalcemia, anemia, and hyponatremia; also recorded: Hypercalcemia and hyponatremia were dose-limiting"
same,"Nausea, prevalence",in vivo,6%
